Assay results taken from article PMC10571751, “Polyarginine Cell-Penetrating Peptides Bind and Inhibit SERCA2” (Cells, 2023).
Where no end group is shown, it is not given here. The star is where a group is joined. Biotin = O=C1N[C@H]2[C@H](CS[C@H]2CCCCC(=O)*)N1

B1: biotin-Arg11 (peptide)
peptide: Biotin-RRRRRRRRRRR
notes: polyarginine cell-penetrating peptide of 11 arginines; Peptides were synthesized with or without the N-terminal biotin; ELISA and SPR used the biotinylated form; also called biotinylated Arg11; polyarginine CPP; source: synthetic peptide (GenScript Biotech Corp, >80% purity)

Columns and labels:
[1] = tested on: rat SERCA3; experiment: Oxalate-supported Ca2+ uptake in homogenates of HEK293 cells transfected with SERCA3; assay type: biochemical; details: nruns Ctr, Arg9, Arg11 = 4, 5, 5
Method: (§1) 10–20 µL of freshly thawed and vortexed homogenate was added to 250 µL of “assay” buffer, containing (in mmol/L) 165 KCl, 22 Hepes, 7.5 oxalate, 11 NaN3, 0.0055 TPEN, 4.5 MgCl2, 9 Tris HCl, and 0.002 Fura-2 salt (pH 7.0, 37 °C). Each CPP was added to attain a final concentration of 40 µmol/L and incubated for 5 min at 37 °C prior to experiments.
(§2) Ca^2+ fluxes were monitored as Fura-2 fluorescence ratio (340 nm/390 nm) using a Hidex Sense Multimodal Microplate Reader (Kem-En-Tec Nordic AS, Uppsala, Sweden). Ca^2+ uptake by the vesicles was initiated by the addition of Na4ATP (2.2 mmol/L) and blocked by the application of thapsigargin (1.5 µmol/L) after 12 min [16]. […] The fluorescence ratio was calibrated to [Ca^2+] using the following equation: [Ca^2+] = Kd × ((R − Rmin)/(Rmax − R)) × (Sf2/Sb2), where R is the 340 nm/390 nm fluorescence ratio, and Kd is the dissociation constant of Fura-2 and Ca^2+ (224 nmol/L). Rmin is the fluorescence ratio at very low [Ca^2+] and Rmax is the ratio at saturating [Ca^2+], obtained by sequentially adding 3.3 mmol/L EGTA and 4.8 mmol/L CaCl2 to the well at the end of each recording. Sf2/Sb2 is the ratio of measured fluorescence intensity at 390 nm when Fura-2 is Ca^2+-free (3.3 mmol/L EGTA) or Ca^2+-bound (4.8 mmol/L CaCl2). […]

[2] = tested on: SERCA (SR vesicles from mouse left ventricle; SERCA2a); experiment: Oxalate-supported SR Ca2+ uptake and leak in mouse left ventricular homogenates (wild-type); assay type: biochemical, mouse (C57BL/6NT); details: 40 µmol/L CPP without cargo, 5 min, 37 °C, pH 7.0; uptake started with Na4ATP; Fura-2 340/390; nruns Ctr, TAT, Arg9, Arg11 = 69, 14, 23, 24
Description: (§3) Ca^2+ handling was also examined in homogenates prepared from mouse left ventricle, rat soleus, and rat extensor digitorum longus (EDL) muscles using methods described by O’Brien and modified by Li et al.. Freshly excised left ventricles and muscles were weighed and homogenized in ice cold homogenization buffer (1:10 wet weight/vol, pH 7.9) containing (in mmol/L) 300 sucrose, 5 NaN3, 1 EDTA, 40 L-histidine, 40 Tris HCl, and protease inhibitors (Complete EDTA-free No 05056489001, Roche, Mannheim, Germany). Homogenization was performed with a Polytron 1200 (Kinematica AG, Luzern, Switzerland) at 25,000 rpm for 3 × 20 s, with a 20 s break between bursts. Homogenates were then aliquoted, frozen in liquid N2, and stored at −80 °C until use.
(§4) 10–20 µL of freshly thawed and vortexed homogenate was added to 250 µL of “assay” buffer, containing (in mmol/L) 165 KCl, 22 Hepes, 7.5 oxalate, 11 NaN3, 0.0055 TPEN, 4.5 MgCl2, 9 Tris HCl, and 0.002 Fura-2 salt (pH 7.0, 37 °C). […]
(§5) Ca^2+ fluxes were monitored as Fura-2 fluorescence ratio (340 nm/390 nm) using a Hidex Sense Multimodal Microplate Reader (Kem-En-Tec Nordic AS, Uppsala, Sweden). […] The fluorescence ratio was calibrated to [Ca^2+] using the following equation: [Ca^2+] = Kd × ((R − Rmin)/(Rmax − R)) × (Sf2/Sb2), where R is the 340 nm/390 nm fluorescence ratio, and Kd is the dissociation constant of Fura-2 and Ca^2+ (224 nmol/L). Rmin is the fluorescence ratio at very low [Ca^2+] and Rmax is the ratio at saturating [Ca^2+], obtained by sequentially adding 3.3 mmol/L EGTA and 4.8 mmol/L CaCl2 to the well at the end of each recording. Sf2/Sb2 is the ratio of measured fluorescence intensity at 390 nm when Fura-2 is Ca^2+-free (3.3 mmol/L EGTA) or Ca^2+-bound (4.8 mmol/L CaCl2).
(§6) Ca^2+ recordings were smoothed using TableCurve 2D (V 5.01, Systat Software Inc., Palo Alto, CA, USA) prior to analysis. After the addition of Na4ATP, the rate constant for Ca^2+ uptake (k) was calculated by fitting the uptake curve to Ca^2+ = Ca^2+0 + ae^−t×k (Sigmaplot V14.0, Systat Software Inc.). […]

[3] = tested on: rat SERCA2a; experiment: Oxalate-supported Ca2+ uptake in homogenates of HEK293 cells transfected with SERCA2a; assay type: biochemical; details: for Ca2+ uptake, SERCA2a-transfected cells, versus untreated: nruns Ctr, Arg9, Arg11 = 12, 16, 16
Method: as §1
(§7) Ca^2+ fluxes were monitored as Fura-2 fluorescence ratio (340 nm/390 nm) using a Hidex Sense Multimodal Microplate Reader (Kem-En-Tec Nordic AS, Uppsala, Sweden). Ca^2+ uptake by the vesicles was initiated by the addition of Na4ATP (2.2 mmol/L) and blocked by the application of thapsigargin (1.5 µmol/L) after 12 min [16]. SR Ca^2+ content, i.e., the “releasable Ca^2+” was estimated by adding the ryanodine receptor opener 4-Chloro-m-cresol (CmC, 5.5 mmol/L). The fluorescence ratio was calibrated to [Ca^2+] using the following equation: [Ca^2+] = Kd × ((R − Rmin)/(Rmax − R)) × (Sf2/Sb2), where R is the 340 nm/390 nm fluorescence ratio, and Kd is the dissociation constant of Fura-2 and Ca^2+ (224 nmol/L). Rmin is the fluorescence ratio at very low [Ca^2+] and Rmax is the ratio at saturating [Ca^2+], obtained by sequentially adding 3.3 mmol/L EGTA and 4.8 mmol/L CaCl2 to the well at the end of each recording. Sf2/Sb2 is the ratio of measured fluorescence intensity at 390 nm when Fura-2 is Ca^2+-free (3.3 mmol/L EGTA) or Ca^2+-bound (4.8 mmol/L CaCl2).
as §6, with “Inc.). Ca^2+ leak from the vesicles was calculated as the linear rise (slope) of the Ca^2+ signal after blockade of SERCA by thapsigargin. Leak measurements were normalized to SR content, determined as the peak [Ca^2+] after addition of CmC.” for “Inc.).”

[4] = tested on: rat SERCA2b; experiment: Oxalate-supported Ca2+ uptake in homogenates of HEK293 cells transfected with SERCA2b; assay type: biochemical; details: for Ca2+ uptake, SERCA2b-transfected cells, versus untreated: nruns Ctr, Arg9, Arg11 = 12, 12, 12
Method: as §1, §7
as §6, with “Inc.). Ca^2+ leak from the vesicles was calculated as the linear rise (slope) of the Ca^2+ signal after blockade of SERCA by thapsigargin. Leak measurements were normalized to SR content, determined as the peak [Ca^2+] after addition of CmC.” for “Inc.).”

[5] = tested on: rat left ventricular cardiomyocytes; experiment: Field-stimulated whole-cell Ca2+ transients in isolated rat cardiomyocytes; assay type: cell-based, rat (Wistar); details: versus untreated Ctr, 5 µmol/L, 1 h preincubation, 1 Hz, 37 °C
Description: For single cell experiments, rat left ventricular cardiomyocytes were isolated as described previously. In brief, rats were anaesthetized by inhalation of a mixture of 5% isoflurane and 95% O2. Hearts were then rapidly excised and mounted via the aorta on a Langendorff apparatus to enable retrograde perfusion with buffer containing collagenase Type II (Worthington Biochemical Corporation, Lakewood, NJ, USA). Following digestion, the heart was cut down, diced, and agitated, and isolated cardiomyocytes were then filtered, washed, and sedimented. Cells were stored in a solution containing (in mmol/L) 130 NaCl, 5.4 KCl, 25 HEPES, 0.5 MgCl2, 0.4 NaH2PO4, 22 glucose, 0.2 CaCl2 (pH 7.40, 22 °C) until use, within 6 h of isolation.
Prior to experiments, cardiomyocytes were preincubated for 1 h with 5 µmol/L of the individual CPPs added to the cell storage solution. During the last 10 min of incubation, cells were additionally loaded with fluo-4 AM (5 µmol/L, Thermo Fisher Scientific, Waltham, MA, USA) for Ca^2+ imaging. The cells were then plated on the stage of an inverted microscope and perfused with HEPES-Tyrode solution containing (in mmol/L) 140 NaCl, 0.5 MgCl2, 5.0 HEPES, 5.5 glucose, 0.4 NaH2PO4, 5.4 KCl, and 1.8 CaCl2 at pH 7.4, 37 °C. Whole-cell Ca^2+ transients were recorded by wide-field photometry, as described previously, using a D-104 microscope photometer and photomultiplier tube (Horiba Ltd., Kyoto, Japan). During field stimulation at 1 Hz, fluorescence was excited by a 475 nm light-emitting diode, and emission was collected at >510 nm.
Ca^2+ signals were analysed by first subtracting background fluorescence values from the cellular recordings. Ca^2+ transient magnitude was calculated as peak fluorescence divided by resting fluorescence (F/F0). The decay time of Ca^2+ transients was assessed using a monoexponential fit of the declining phase of the Ca^2+ transient to calculate tau (s), using Clampfit 10.4 software (Molecular Devices LLC, Sunnyvale, CA, USA).

[6] = tested on: SERCA (SR vesicles from left ventricle of PLB knockout mice); experiment: Oxalate-supported SR Ca2+ uptake and leak in left ventricular homogenates of phospholamban knockout mice; assay type: biochemical, mouse (phospholamban knockout); details: 40 µmol/L CPP without cargo, 5 min, 37 °C, pH 7.0; nruns Ctr, TAT, Arg9, Arg11 = 58, 12, 17, 15
Description: as §3, §4, §5, §6

[7] = tested on: SERCA (rat soleus homogenates; SERCA2a); experiment: Oxalate-supported Ca2+ uptake, leak and releasable Ca2+ in rat soleus homogenates; assay type: biochemical, rat (Wistar); details: 40 µmol/L CPP without cargo, 5 min, 37 °C, pH 7.0; nruns Ctr, TAT, Arg9, Arg11 = 6, 5, 6, 6
Description: as §3, §4, §5, §6

[8] = tested on: rat SERCA1; experiment: Oxalate-supported Ca2+ uptake in homogenates of HEK293 cells transfected with SERCA1; assay type: biochemical; details: nruns Ctr, Arg9, Arg11 = 4, 5, 5
Method: as §1, §2

[9] = tested on: SERCA (rat EDL homogenates; SERCA1); experiment: Oxalate-supported Ca2+ uptake, leak and releasable Ca2+ in rat EDL homogenates; assay type: biochemical, rat (Wistar); details: 40 µmol/L, 5 min, 37 °C, pH 7.0; without (Figure 4B) and with cargo (Figure 4D)
Description: as §3, with “use. […]” for “use.”
as §5, with “Sf2/Sb2 is the ratio of measured fluorescence intensity at 390 nm when Fura-2 is Ca^2+-free (3.3 mmol/L EGTA) or Ca^2+-bound (4.8 mmol/L CaCl2).” left out

[10] = molecular target: T1, 12xHis-SERCA2(111-253) (UniProt P16615 111-253); experiment: SPR; Biacore X100; biotinylated Arg11 immobilised on an SA chip at 744.3 RU; 12xHis-SERCA2(111-253) injected at 0.7–200 nM, 0.19–50 nM or 12.5–200 nM, 30 µL/minute for 180 s; dissociation 600 or 1000 s; 1 × Biacore running buffer; one-to-one Langmuir model; details: both partners purified
T1 construct: also called recombinant SERCA2 polypeptide containing the A-domain; actuator domain of SERCA2; source: recombinant, generated by Genscript; dialysed into Biacore running buffer for SPR
T1 sequence (P16615 111-253): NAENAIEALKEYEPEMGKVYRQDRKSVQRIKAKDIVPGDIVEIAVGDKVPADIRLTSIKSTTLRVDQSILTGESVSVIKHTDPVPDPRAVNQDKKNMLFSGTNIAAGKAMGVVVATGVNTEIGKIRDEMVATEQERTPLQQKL

Row | Molecule | Ca2+ uptake rate, SERCA3-transfected cells, versus untreated [1] | Ca2+ uptake rate, effect versus untreated control [2] | Ca2+ uptake, SERCA2a-transfected cells, versus untreated [3] | Ca2+ uptake, SERCA2b-transfected cells, versus untreated [4] | effect on Ca2+ transient decay (tau), in words [5] | Ca2+ uptake, PLB knockout, effect versus untreated control [6] | Ca2+ uptake rate in soleus, effect versus untreated control [7] | Ca2+ uptake rate, SERCA1-transfected cells, versus untreated [8] | Ca2+ uptake rate in EDL, effect versus untreated control [9] | inhibition of Ca2+ uptake compared with Arg9, SERCA2a ([3]; comparison Arg11 versus Arg9) | inhibition of Ca2+ uptake compared with Arg9, SERCA2b ([4]; comparison Arg11 versus Arg9) | increase in tau value for Ca2+ removal (Ca2+ transient decay) ([5]; p = 0.021, ncells Ctr 37, Arg11 31, 4 hearts) | Kd [10] | koff [10] | kon [10]
1 | RRRRRRRRR [Arg9] | Neither Arg9 nor Arg11 altered the Ca^2+ uptake rate | slowed Ca^2+ uptake, albeit to a lesser extent than Arg11 | significantly slowed Ca^2+ uptake | significantly slowed Ca^2+ uptake | No such effects were noted | lesser but statistically significant inhibition | lesser but statistically significant inhibition | Neither Arg9 nor Arg11 altered the Ca^2+ uptake rate |  |  |  |  |  |  | 
2 | RKKRRQRRR [TAT, reference compound] |  | no significant effect |  |  | No such effects were noted | did not observe inhibition of SERCA2 activity | did not alter the rate of Ca^2+ uptake |  | did not observe inhibition of SERCA2 activity |  |  |  |  |  | 
3 | RRRRRRRRRRR [Arg11] | Neither Arg9 nor Arg11 altered the Ca^2+ uptake rate | marked slowing of Ca^2+ uptake | significantly slowed Ca^2+ uptake | significantly slowed Ca^2+ uptake | slowing of Ca^2+ transient decay | tending to cause the most marked inhibition of Ca^2+ uptake | most marked effect | Neither Arg9 nor Arg11 altered the Ca^2+ uptake rate |  | tended to be more marked than that induced by Arg9 | tended to be more marked than that induced by Arg9 | 14% |  |  | 
4 | B1 |  |  |  |  |  |  |  |  |  |  |  |  | 0.4 nM | 6.6e-05 s⁻¹ | 210000 M⁻¹ s⁻¹
